Test results reported in patent US20250049914A1, “STEROID ACID-PEPTIDE BASED INTRACELLULAR CARGO DELIVERY” (DEFENCE THERAPEUTICS INC., priority 2021, published 2025).
Where no end group is shown, it is not given here.

What was measured:
[1] = system: cross-presenting mesenchymal stromal cell line (cpMSC); test: Antigen-presentation assay using the B3Z reporter system, cross-presenting MSC line; format: cell-based; details: cpMSCs, OVA admixed, vs OVA alone or OVA mixed with CA-SV40NLS
Method: Various bile acid-NLS conjugates were screened using the B3Z reporter system. The B3Z cell line is a T-cell hybridoma specific for the H2-K^b-[…] complex. Once activated via its TCR, the LacZ reporter gene (under the NFAT promoter control) is expressed. Briefly, 1.5×10^5 BMDCs or 2.5×10^5 MSCs were co-cultured with 5×10^4 B3Z cells treated with the mixing conditions of ovalbumin (OVA) and bile acid-NLS conjugates for overnight at 37° C. with 5% CO2. The following day, all cells were washed twice with PBS (pH 7.4), and the cell pellets were lysed by adding 100 μL of a lysis buffer containing 0.15 mM chlorophenol red-beta-D-galactopyranoside (CPRG) substrate (Calbiochem, La Jolla, CA), 0.125% NP40 (EMD Sciences, La Jolla, CA), 9 mM MgCl2 (Aldrich, USA) and 100 mM 2-mercaptoethanol in PBS. After a 5- or 24-h incubation at 37° C., absorbance was taken at 570 nm with 636 nm as the reference wavelength. For these experiments, OVA was re-suspended in PBS (pH 7.3) at 5-10 mg/mL. The different bile acid-NLS conjugates were re-suspended in H2O at 10 mg/mL. Bile acid-NLS conjugate: antigen mixtures were prepared at different molar ratios according to Table 1.
Further variants of CA-SV40NLS were synthesized in which the SV40NLS peptide was replaced with peptides comprising other NLS's (Table 5) and the antigen presentation activities of the CA-NLS peptide conjugates were evaluated using the B3Z reporter system as described in Example 1. The following conjugate: antigen molar ratios were tested for each conjugate: 2:1, 4:1, 8:1, 12:1 and 22:1. The results in FIGS. 12-15 compare the antigen presentation activities of different conjugates at the conjugate: antigen ratio that yielded the highest B3Z response (OD570) for that conjugate.

[2] = system: cpMSCs; test: OVA-DQ processing in cpMSCs, flow cytometry; format: cell-based; details: various molar ratios
Method: For this experiment, a cross-presenting mesenchymal stromal cell line (cpMSC) was used as the antigen presenting cells, which were pulsed with DQ™ Ovalbumin (i.e., OVADQ). OVADQ fluorescence was measured by flow cytometry. Different ratios of CA (NLS1 RSP17 [FIG. 17A]; NLS3 RPS17 [FIG. 17B]; and PQBP-1 [FIG. 17C] to antigen (CA: OVA=22:1, 12:1, 8:1, 4:1, and 2:1) were tested (hnRNPA1 M9 NLS at 2:1).
To further dissect the effect of bile acid peptide conjugates on antigen presentation, antigen internalization and processing were evaluated. cpMSCs were pulsed with OVA-labelled with AF647 in the presence of various molar ratios of different bile acid peptide conjugates, NLS1-RPS17 [FIG. 16A]; NLS3 RPS17 [FIG. 16B]; PQBP-1 [FIG. 16C]; and hnRNPA1 M9 NLS [FIG. 6]) and fluorescence was assessed by flow cytometry. […] OVA processing was assessed by pulsing cpMSCs with DQ™-Ovalbumin (OVA-DQ) in the presence of the same bile acid peptide conjugates as in FIGS. 6 and 16.

[3] = system: WT MSCs; test: Antigen cross-presentation assay on wild-type MSCs with B3Z cells; format: cell-based, mouse
Method: In order to generate Bone marrow (BM)-derived mouse MSCs, the femurs of 6-8-week-old female Balb/c or C57BL/6 mice were isolated and flushed with Alpha Modification of Eagle's Medium (AMEM) supplemented with 10% FBS and 50 U/mL Penicillin-Streptomycin in a 10 cm cell culture dish, then incubated at 37° C. Two days later, non-adherent cells were removed and the media replaced every 3 to 4 days until plastic-adherent cells reached 80% confluency. The generated cells were detached using 0.05% trypsin and expanded until a uniform MSC population was obtained. The generated MSCs were validated for their innate phenotype by flow-cytometry for the expression of CD44, CD45, CD73, and CD90. The cells were frozen in liquid nitrogen until use.
To assess cross-presentation assay, 25×10^3 cells MSCs were seeded per well in 24-well plate then pulsed with steroid acid peptide-conjugated for 6 h admixed with OVA. At the end of the pulsing period, the cells were washed to remove excess antigen then 5×10^4 B3Z cells. The cells were incubated for 17-19 hours prior to their lysis and incubation for another 4-6 hours at 37° C. with a CPRG solution. The optical density signal was detected at wavelength 570 using a SynergyH1™ microplate reader (Biotek, Winooski, VT, United States).
To determine whether a similar effect occurs in wild type (WT) (i.e., non-engineered) MSCs, BM-derived MSCs (Example 1) were used instead in the same cross presentation assay with B3Z responder cells.

[4] = system: MSCs; test: Cytokine and chemokine analysis (Luminex); format: cell-based, mouse; details: 50 μM CA-hnRNPA1, 6 h
Method: For cytokine and chemokine profiling, 15 cm cell culture dishes containing 80-90% confluent MSCs were grown in serum-free AMEM for 24 h at 37° C. and 5% CO2. MSCs were then treated with 50 μM of CA-hnRNPA1 in serum-free AMEM for 6 h. The supernatant was collected and fresh serum-free AMEM was replenished, without CA-hnRNPA1. After 24 h of the initial CA-hnRNPA1 treatment, the supernatant was collected and gathered with the previous one collected. Collected supernatants were then concentrated using the Amicon Ultra-4™ centrifugal filters (3000 NMWL) for 1 h at 4° C. Collected concentrates (80×) were then frozen at −80° C. until shipped to EveTechnologies™ (Calgary, AB, Canada) for cytokine/chemokine assessment by […].

[5] = system: mesenchymal stromal cells (MSCs); test: OVA-AF647 intracellular delivery, flow cytometry; format: cell-based; details: OVA-AF647 mixed with 45 μM conjugate, nine hours, vs cargo alone
Method: (§1) Mesenchymal stromal cells (MSCs) were incubated with either unconjugated fluorescently labeled OVA-AF647 alone or mixed with 45 μM of CA-HnRPA1 NLS steroid acid-peptide for nine hours and then intracellular OVA-AF647 delivery was assessed by flow cytometry as described in Example 1. […] The experiment was repeated with DQ™ OVA as cargo to evaluate the intracellular fate of the cargo delivered upon coincubation with CA-HnRPA1 NLS, as described in Example 4.

[6] = system: mesenchymal stromal cells (MSCs); test: DQ OVA degradation/processing in MSCs, flow cytometry; format: cell-based; details: DQ OVA coincubated with conjugate, nine hours
Method: To evaluate OVA degradation/processing, cells were incubated with 10 µg/mL DQ™ OVA (with or without steroid acid-peptide modification) at 37° C. 30 minutes later, cells were washed, and regular media was added. At the end of the indicated incubation time, cells were collected and washed with cold PBS containing 2% FBS. Fluorescence was monitored by analyzing the cells by flow cytometry.
as §1

Q: What does the source list for “CA-hnRNPA1: cholic acid conjugated to hnRNPA1 M9 NLS peptide CSNFGPMKGGNFGGRSSGPY (SEQ ID NO: 4) (not fully specified (N-terminus); also: cholic acid conjugate, site not given here)”?
A: antigen-presentation activity of cholic acid-NLS peptide conjugates (B3Z response) [1]: amongst the best enhancers of cross presentation; antigen-presentation activity of cholic acid-NLS peptide conjugates (B3Z response) ([1]; listed as CA-hnRNPA1 M9 NLS): highly enhance cross presentation; OVA processing (OVA-DQ fluorescence) [2]: enhance OVA processing; antigen cross-presentation with conjugate diluted in PBS or H2O ([3]; WT MSCs): enhancement; OVA cross presentation by WT MSCs (B3Z) ([3]; WT MSCs pulsed with OVA with or without conjugate): significantly enhanced; cytokine levels (Luminex) [4]: increases in various cytokines; intracellular OVA-AF647 cargo delivery ([5]; listed as CA-HnRPA1): increased intracellular cargo delivery; intracellular OVA-AF647 cargo delivery ([5]; listed as CA-hnRPA1 M9 NLS): increased intracellular delivery; DQ OVA fluorescence (intracellular degradation/processing) ([6]; listed as CA-HnRPA1 NLS): sharp increase; DQ OVA fluorescence (intracellular degradation/processing) ([6]; listed as CA-hnRPA1 M9 NLS): increased intracellular degradation/processing
